The text below walks through data of BindingDB's records for doi:10.1016/j.bmcl.2012.08.020 (Amgen, 2012).

Each structure is given as a SMILES string.

A short description of this assay: Inhibition of ACK1 in mouse C8 cells assessed as decrease in cell viability after 20 to 24 hrs.
The term IC50 denotes the concentration that inhibits the measured activity by half. Consider `CN(C)CCOc1ccc(-c2oc3ncnc(NCC4SCCS4)c3c2-c2ccccc2)cc1`, for which the IC50 is 10 nM. The same measure for `CO[C@@H]1CCC[C@@H]1CNc1ncnc2[nH]c(-c3ccc(OCCN(C)C)cc3)c(-c3ccccc3)c12`: 780 nM. The same measure for `CNC(=O)c1ccc(-c2[nH]c3ncnc(NC[C@@H]4CCCO4)c3c2-c2ccccc2)cc1`: 40 nM; for `c1cncc(-c2c(-c3ccc(OCCN4CCCC4)cc3)[nH]c3ncnc(NC[C@@H]4CCCO4)c23)c1`: 390 nM; for `Cc1ccccc1-c1c(-c2ccc(OCCN3CCCC3)cc2)[nH]c2ncnc(NC[C@@H]3CCCO3)c12`: 160 nM. With `CNC(=O)c1ccc(-c2oc3ncnc(NC[C@@H]4CCCO4)c3c2-c2ccccc2)cc1`, the IC50 came out at 2050 nM. As for `CN(C)CCOc1ccc(-c2oc3ncnc(NCC4SCCCS4)c3c2-c2ccccc2)cc1`, the figure is 550 nM; as for `CN(C)CCOc1ccc(-c2[nH]c3ncnc(NCC4SCCS4)c3c2-c2ccccc2)cc1`, 5 nM; as for `O=C1CCCN1CCOc1ccc(-c2[nH]c3ncnc(NC[C@@H]4CCCO4)c3c2-c2ccccc2)cc1`, 20 nM. As to `O=C(c1ccc(-c2oc3ncnc(NC[C@@H]4CCCO4)c3c2-c2ccccc2)cc1)N1CCOCC1`, the IC50 was determined as 190 nM. For the molecule `CN(C)CCOc1ccc(-c2[nH]c3ncnc(NC[C@@H]4CCCO4)c3c2C2=CCCC2)cc1`, the IC50 is 240 nM.

With `c1ccc(-c2c(-c3ccc(OCCN4CCOCC4)cc3)[nH]c3ncnc(NC[C@@H]4CCCO4)c23)cc1`, the IC50 came to 80 nM.

Consider `CNS(=O)(=O)c1ccc(-c2[nH]c3ncnc(NC[C@@H]4CCCO4)c3c2-c2ccccc2)cc1`, for which the IC50 was 40 nM. As for `O=C(c1ccc(-c2[nH]c3ncnc(NC[C@@H]4CCCO4)c3c2-c2ccccc2)cc1)N1CCOCC1`, the figure is 20 nM; as for `CN(C)C(=O)c1ccc(-c2oc3ncnc(NC[C@@H]4CCCO4)c3c2-c2ccccc2)cc1`, 180 nM.

Take `CS(=O)(=O)c1ccc(-c2oc3ncnc(NC[C@@H]4CCCO4)c3c2-c2ccccc2)cc1`: the IC50 came to 250 nM. The same measure for `c1ccc(-c2c(-c3ccc(OCCN4CCCC4)cc3)[nH]c3ncnc(NC[C@@H]4CCCO4)c23)cc1`: 60 nM; for `COc1ccc(-c2[nH]c3ncnc(NC[C@@H]4CCCO4)c3c2-c2ccccc2)cc1`: 350 nM. `CN(C)CCOc1ccc(-c2[nH]c3ncnc(NC[C@@H]4CCCO4)c3c2-c2ccccc2)cc1`: the IC50 is 20 nM. As to `c1ccc(-c2c(-c3ccc(OCCN4CCOCC4)cc3)oc3ncnc(NC[C@@H]4CCCO4)c23)cc1`, the IC50 was 160 nM. The same measure for `CO[C@@H]1CC[C@H]1CNc1ncnc2[nH]c(-c3ccc(OCCN(C)C)cc3)c(-c3ccccc3)c12`: 420 nM. As for `Fc1ccccc1-c1c(-c2ccc(OCCN3CCCC3)cc2)[nH]c2ncnc(NC[C@@H]3CCCO3)c12`, the figure is 40 nM. With `CN(C)CCOc1ccc(-c2[nH]c3ncnc(NC[C@@H]4CC[C@H]4O)c3c2-c2ccccc2)cc1`, the IC50 was found to be 410 nM. In the case of `CS(=O)(=O)c1ccc(-c2[nH]c3ncnc(NC[C@@H]4CCCO4)c3c2-c2ccccc2)cc1`, the IC50 amounted to 100 nM. On to `CN(C)CCOc1ccc(-c2oc3ncnc(NC[C@@H]4CCCO4)c3c2-c2ccccc2)cc1` [(S)-6-(4-(2-(dimethylamino)ethoxy)phenyl)-5-phenyl-N-((tetrahydrofuran-2-yl)methyl)furo[2,3-d]pyrimidin-4-amine], for which the IC50 was 30 nM. `CN(C)CCOc1ccc(-c2oc3ncnc(NCC4OCCO4)c3c2-c2ccccc2)cc1`: the half-inhibitory concentration (IC50) came to 2000 nM. In the case of `c1ccc(-c2c(-c3ccc(OCCN4CCCC4)cc3)[nH]c3ncnc(NCC4SCCS4)c23)cc1`, the half-maximal inhibitory concentration (IC50) came to 10 nM. As for `O=C1CCCN1CCOc1ccc(-c2oc3ncnc(NC[C@@H]4CCCO4)c3c2-c2ccccc2)cc1`, the figure is 230 nM; as for `CN(C)CCOc1ccc(-c2oc3ncnc(NC[C@@H]4CCCCS4)c3c2-c2ccccc2)cc1`, 7160 nM; as for `COc1ccc(-c2oc3ncnc(NC[C@@H]4CCCO4)c3c2-c2ccccc2)cc1`, 550 nM. The same measure for `CN(C)CCOc1ccc(-c2[nH]c3ncnc(NC[C@H]4CCC[C@H]4O)c3c2-c2ccccc2)cc1`: 460 nM; for `CNS(=O)(=O)c1ccc(-c2oc3ncnc(NC[C@@H]4CCCO4)c3c2-c2ccccc2)cc1`: 300 nM. As for `c1ccc(-c2[nH]c3ncnc(NC[C@@H]4CCCO4)c3c2-c2ccccc2)cc1`, the figure is 620 nM; as for `c1ccc(-c2oc3nccc(NC[C@@H]4CCCO4)c3c2-c2ccccc2)cc1` [N-[(2S)-oxolan-2-ylmethyl]-2,3-diphenylfuro[2,3-b]pyridin-4-amine], 5600 nM. Turning to `CN(C)C(=O)c1ccc(-c2[nH]c3ncnc(NC[C@@H]4CCCO4)c3c2-c2ccccc2)cc1`, the IC50 was found to be 20 nM. Take `CN(C)S(=O)(=O)c1ccc(-c2[nH]c3ncnc(NC[C@@H]4CCCO4)c3c2-c2ccccc2)cc1`: the IC50 came to 90 nM. `CN(C)CCOc1ccc(-c2oc3ncnc(NCC4CCCS4)c3c2-c2ccccc2)cc1` (stereo not given): the IC50 is 3000 nM. Consider `COc1cccc(-c2c(-c3ccc(OCCN4CCCC4)cc3)[nH]c3ncnc(NC[C@@H]4CCCO4)c23)c1`, for which the IC50 was found to be 160 nM.

`CO[C@@H]1CCC[C@H]1CNc1ncnc2[nH]c(-c3ccc(OCCN(C)C)cc3)c(-c3ccccc3)c12`: the IC50 amounted to 1300 nM. Take `CN(C)CCOc1ccc(-c2[nH]c3ncnc(NC[C@@H]4CCCO4)c3c2C2=CCCCC2)cc1`: the IC50 came to 500 nM.
